Measured values from US20230391768A2, “IMIDAZOPYRIDINE DERIVATIVES AND AZA-IMIDAZOPYRIDINE DERIVATIVES AS JANUS KINASE 2 INHIBITORS AND USES THEREOF” (Dana-Farber Cancer Institute, Inc., priority 2018, published 2023).

Key:
Assay in all cases: KINOMEscan
Assay type in all cases: binding
Details in all cases: read-out: percent of control
[1] = target: ABL1(Y253F)-phosphorylated (Homo sapiens (Human), UniProt P00519, Y253F)
Experimental: (§1) In vitro profiling of Compound I-2 (1 μM) was performed using the DiscoveRx KINOMEscan® platform.

TNIK = TNIK (Homo sapiens (Human), UniProt Q9UKE5)
Experimental: as §1

KIT(D816H) = KIT(D816H) (Homo sapiens (Human), UniProt P10721, D816H)
Experimental: as §1

DMPK = DMPK (Homo sapiens (Human), UniProt Q09013)
Experimental: as §1

DCAMKL3 = DCAMKL3 (Homo sapiens (Human), UniProt Q9C098)
DCAMKL3, sequence (Q9C098 whole entry, looked up): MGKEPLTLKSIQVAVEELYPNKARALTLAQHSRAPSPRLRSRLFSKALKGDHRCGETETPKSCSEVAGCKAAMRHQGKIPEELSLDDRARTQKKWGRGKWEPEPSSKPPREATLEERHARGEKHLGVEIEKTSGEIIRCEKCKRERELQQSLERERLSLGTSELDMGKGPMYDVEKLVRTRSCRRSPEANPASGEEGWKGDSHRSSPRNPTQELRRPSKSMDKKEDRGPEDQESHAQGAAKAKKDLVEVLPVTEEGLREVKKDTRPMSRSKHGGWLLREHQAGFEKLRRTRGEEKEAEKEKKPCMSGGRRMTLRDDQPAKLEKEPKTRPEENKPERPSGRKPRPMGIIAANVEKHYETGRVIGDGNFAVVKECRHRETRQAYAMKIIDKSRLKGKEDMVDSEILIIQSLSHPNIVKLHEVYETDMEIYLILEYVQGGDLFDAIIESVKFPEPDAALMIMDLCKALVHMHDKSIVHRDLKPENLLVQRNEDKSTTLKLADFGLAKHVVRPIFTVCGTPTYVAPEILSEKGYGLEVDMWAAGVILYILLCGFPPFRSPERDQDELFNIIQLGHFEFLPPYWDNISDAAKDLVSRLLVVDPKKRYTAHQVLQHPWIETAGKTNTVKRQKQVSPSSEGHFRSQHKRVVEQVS
Experimental: as §1

[2] = target: JAK1(JH2domainpseudokinase) (Homo sapiens (Human), UniProt P23458)
JAK1(JH2domainpseudokinase), sequence (P23458 583-855 limits assumed): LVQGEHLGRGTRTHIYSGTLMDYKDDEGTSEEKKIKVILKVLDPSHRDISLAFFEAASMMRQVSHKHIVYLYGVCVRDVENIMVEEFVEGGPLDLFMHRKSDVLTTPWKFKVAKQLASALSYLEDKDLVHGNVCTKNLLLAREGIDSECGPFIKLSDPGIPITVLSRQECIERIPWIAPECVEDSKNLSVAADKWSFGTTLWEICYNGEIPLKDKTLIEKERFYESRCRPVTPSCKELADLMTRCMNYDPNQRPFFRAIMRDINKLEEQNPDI
Experimental: as §1

RET (V804M) = RET (V804M) (Homo sapiens (Human), UniProt P07949, V804M)
Experimental: as §1

PIK3CA(E545K) = PIK3CA(E545K) (Homo sapiens (Human), UniProt P42336, E545K)
Experimental: as §1

TNK1 = TNK1 (Homo sapiens (Human), UniProt Q13470)
Experimental: as §1

ICK = ICK (Homo sapiens (Human), UniProt Q9UPZ9)
Experimental: as §1

PFTK1 = PFTK1 (Homo sapiens (Human), UniProt O94921)
PFTK1, sequence (O94921 whole entry): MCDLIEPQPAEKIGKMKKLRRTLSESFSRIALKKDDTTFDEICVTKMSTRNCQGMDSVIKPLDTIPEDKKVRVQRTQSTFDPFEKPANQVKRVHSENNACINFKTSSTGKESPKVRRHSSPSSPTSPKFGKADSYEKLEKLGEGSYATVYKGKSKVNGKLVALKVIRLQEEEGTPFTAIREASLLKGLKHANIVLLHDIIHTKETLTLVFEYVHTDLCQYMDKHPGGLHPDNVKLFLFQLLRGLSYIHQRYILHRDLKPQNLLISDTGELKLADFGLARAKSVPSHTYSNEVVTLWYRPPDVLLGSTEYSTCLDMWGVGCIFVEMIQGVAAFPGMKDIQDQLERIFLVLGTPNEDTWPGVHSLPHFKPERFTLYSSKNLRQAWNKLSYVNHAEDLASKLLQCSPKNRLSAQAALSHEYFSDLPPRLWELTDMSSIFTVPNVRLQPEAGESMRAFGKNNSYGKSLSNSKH
Experimental: as §1

MELK = MELK (Homo sapiens (Human), UniProt Q14680)
Experimental: as §1

ACVR2B = ACVR2B (Homo sapiens (Human), UniProt Q13705)
Experimental: as §1

ULK3 = ULK3 (Homo sapiens (Human), UniProt Q6PHR2)
Experimental: as §1

CSNK1A1 = CSNK1A1 (Homo sapiens (Human), UniProt P48729)
Experimental: as §1

ASK2 = ASK2 (Homo sapiens (Human), UniProt O95382)
Experimental: as §1

CSNK1D = CSNK1D (Homo sapiens (Human), UniProt P48730)
Experimental: as §1

GRK1 = GRK1 (Homo sapiens (Human), UniProt Q15835)
Experimental: as §1

PAK6 = PAK6 (Homo sapiens (Human), UniProt Q9NQU5)
Experimental: as §1

MLCK = MLCK (Homo sapiens (Human), UniProt Q32MK0)
MLCK, sequence (Q32MK0 whole entry): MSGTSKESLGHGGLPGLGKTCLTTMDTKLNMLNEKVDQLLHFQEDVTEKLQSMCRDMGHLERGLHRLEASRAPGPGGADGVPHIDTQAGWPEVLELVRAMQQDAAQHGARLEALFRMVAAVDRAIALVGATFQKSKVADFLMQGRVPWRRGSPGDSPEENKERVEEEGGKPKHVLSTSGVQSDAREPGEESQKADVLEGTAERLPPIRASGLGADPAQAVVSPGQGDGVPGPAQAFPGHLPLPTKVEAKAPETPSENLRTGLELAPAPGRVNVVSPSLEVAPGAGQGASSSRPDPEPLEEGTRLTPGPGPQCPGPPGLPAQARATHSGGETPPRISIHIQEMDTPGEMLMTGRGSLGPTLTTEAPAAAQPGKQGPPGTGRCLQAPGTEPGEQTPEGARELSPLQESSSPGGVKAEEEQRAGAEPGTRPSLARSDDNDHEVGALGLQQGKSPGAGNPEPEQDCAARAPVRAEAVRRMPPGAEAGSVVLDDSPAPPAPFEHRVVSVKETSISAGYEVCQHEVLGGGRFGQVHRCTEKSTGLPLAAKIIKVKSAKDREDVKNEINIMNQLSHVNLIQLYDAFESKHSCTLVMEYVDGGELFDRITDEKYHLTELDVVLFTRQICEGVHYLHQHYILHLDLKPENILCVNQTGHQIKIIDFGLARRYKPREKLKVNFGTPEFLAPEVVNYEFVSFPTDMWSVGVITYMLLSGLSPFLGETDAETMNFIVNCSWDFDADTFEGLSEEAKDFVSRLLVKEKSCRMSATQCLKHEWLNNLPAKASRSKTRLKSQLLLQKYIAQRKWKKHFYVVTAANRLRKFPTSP
Experimental: as §1

EPHA3 = EPHA3 (Homo sapiens (Human), UniProt P29320)
Experimental: as §1

IKK-beta = IKK-beta (Homo sapiens (Human), UniProt O14920)
Experimental: as §1

TIE2 = TIE2 (Homo sapiens (Human), UniProt Q02763)
Experimental: as §1

MAST1 = MAST1 (Homo sapiens (Human), UniProt Q9Y2H9)
Experimental: as §1

EGFR(G719C) = EGFR(G719C) (Homo sapiens (Human), UniProt P00533, G719C)
EGFR(G719C), sequence (P00533 25-1210 G719C): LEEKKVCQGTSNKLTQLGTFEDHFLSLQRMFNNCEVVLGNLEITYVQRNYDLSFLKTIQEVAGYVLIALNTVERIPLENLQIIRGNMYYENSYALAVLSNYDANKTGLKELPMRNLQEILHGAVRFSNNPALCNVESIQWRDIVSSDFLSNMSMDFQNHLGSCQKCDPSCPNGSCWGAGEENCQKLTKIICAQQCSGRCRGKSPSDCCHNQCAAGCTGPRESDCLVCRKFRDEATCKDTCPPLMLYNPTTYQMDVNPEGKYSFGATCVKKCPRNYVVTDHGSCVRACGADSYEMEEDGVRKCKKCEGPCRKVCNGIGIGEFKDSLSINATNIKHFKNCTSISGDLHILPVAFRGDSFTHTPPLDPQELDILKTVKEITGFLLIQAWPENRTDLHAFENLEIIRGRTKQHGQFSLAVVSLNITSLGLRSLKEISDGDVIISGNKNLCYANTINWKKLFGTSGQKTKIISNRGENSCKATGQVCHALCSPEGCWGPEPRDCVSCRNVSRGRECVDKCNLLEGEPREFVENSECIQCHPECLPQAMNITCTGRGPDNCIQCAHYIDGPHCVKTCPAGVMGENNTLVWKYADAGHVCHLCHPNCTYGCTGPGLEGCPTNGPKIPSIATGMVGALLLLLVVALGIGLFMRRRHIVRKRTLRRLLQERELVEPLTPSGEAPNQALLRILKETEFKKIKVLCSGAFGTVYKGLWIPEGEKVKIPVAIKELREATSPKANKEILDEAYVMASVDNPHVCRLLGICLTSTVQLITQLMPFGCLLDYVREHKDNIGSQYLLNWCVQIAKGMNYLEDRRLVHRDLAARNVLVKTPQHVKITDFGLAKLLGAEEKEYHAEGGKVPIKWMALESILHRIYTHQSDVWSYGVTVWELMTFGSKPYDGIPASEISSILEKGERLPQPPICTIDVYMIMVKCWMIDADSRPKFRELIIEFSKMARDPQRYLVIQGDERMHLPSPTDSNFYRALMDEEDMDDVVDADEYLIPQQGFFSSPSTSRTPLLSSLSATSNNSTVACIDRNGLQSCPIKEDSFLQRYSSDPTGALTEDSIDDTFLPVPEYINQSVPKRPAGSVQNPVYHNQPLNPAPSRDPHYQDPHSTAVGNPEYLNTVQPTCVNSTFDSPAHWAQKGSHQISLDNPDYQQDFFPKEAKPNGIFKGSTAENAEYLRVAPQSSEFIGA
Experimental: as §1

MKK7 = MKK7 (Homo sapiens (Human), UniProt O14733)
Experimental: as §1

DYRK2 = DYRK2 (Homo sapiens (Human), UniProt Q92630)
Experimental: as §1

[3] = target: RSK4 (Kin.Dom.1-N-terminal) (Homo sapiens (Human), UniProt Q9UK32)
RSK4 (Kin.Dom.1-N-terminal), sequence (Q9UK32 73-330): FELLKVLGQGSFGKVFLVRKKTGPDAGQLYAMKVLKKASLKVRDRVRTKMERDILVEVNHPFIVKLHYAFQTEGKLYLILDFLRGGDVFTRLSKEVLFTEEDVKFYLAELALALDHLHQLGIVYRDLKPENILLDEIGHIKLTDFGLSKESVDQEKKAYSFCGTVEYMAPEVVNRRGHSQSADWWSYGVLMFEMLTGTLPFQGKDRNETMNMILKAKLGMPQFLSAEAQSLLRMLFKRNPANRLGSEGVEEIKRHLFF
Experimental: as §1

ERK3 = ERK3 (Homo sapiens (Human), UniProt Q16659)
Experimental: as §1

LCK = LCK (Homo sapiens (Human), UniProt P06239)
Experimental: as §1

ULK2 = ULK2 (Homo sapiens (Human), UniProt Q8IYT8)
Experimental: as §1

KIT(L576P) = KIT(L576P) (Homo sapiens (Human), UniProt P10721, L576P)
Experimental: as §1

TAOK1 = TAOK1 (Homo sapiens (Human), UniProt Q7L7X3)
Experimental: as §1

ITK = ITK (Homo sapiens (Human), UniProt Q08881)
Experimental: as §1

PFTAIRE2 = PFTAIRE2 (Homo sapiens (Human), UniProt Q96Q40)
Experimental: as §1

YANK1 = YANK1 (Homo sapiens (Human), UniProt Q8WU08)
Experimental: as §1

ASK1 = ASK1 (Homo sapiens (Human), UniProt Q99683)
ASK1, sequence (Q99683 whole entry): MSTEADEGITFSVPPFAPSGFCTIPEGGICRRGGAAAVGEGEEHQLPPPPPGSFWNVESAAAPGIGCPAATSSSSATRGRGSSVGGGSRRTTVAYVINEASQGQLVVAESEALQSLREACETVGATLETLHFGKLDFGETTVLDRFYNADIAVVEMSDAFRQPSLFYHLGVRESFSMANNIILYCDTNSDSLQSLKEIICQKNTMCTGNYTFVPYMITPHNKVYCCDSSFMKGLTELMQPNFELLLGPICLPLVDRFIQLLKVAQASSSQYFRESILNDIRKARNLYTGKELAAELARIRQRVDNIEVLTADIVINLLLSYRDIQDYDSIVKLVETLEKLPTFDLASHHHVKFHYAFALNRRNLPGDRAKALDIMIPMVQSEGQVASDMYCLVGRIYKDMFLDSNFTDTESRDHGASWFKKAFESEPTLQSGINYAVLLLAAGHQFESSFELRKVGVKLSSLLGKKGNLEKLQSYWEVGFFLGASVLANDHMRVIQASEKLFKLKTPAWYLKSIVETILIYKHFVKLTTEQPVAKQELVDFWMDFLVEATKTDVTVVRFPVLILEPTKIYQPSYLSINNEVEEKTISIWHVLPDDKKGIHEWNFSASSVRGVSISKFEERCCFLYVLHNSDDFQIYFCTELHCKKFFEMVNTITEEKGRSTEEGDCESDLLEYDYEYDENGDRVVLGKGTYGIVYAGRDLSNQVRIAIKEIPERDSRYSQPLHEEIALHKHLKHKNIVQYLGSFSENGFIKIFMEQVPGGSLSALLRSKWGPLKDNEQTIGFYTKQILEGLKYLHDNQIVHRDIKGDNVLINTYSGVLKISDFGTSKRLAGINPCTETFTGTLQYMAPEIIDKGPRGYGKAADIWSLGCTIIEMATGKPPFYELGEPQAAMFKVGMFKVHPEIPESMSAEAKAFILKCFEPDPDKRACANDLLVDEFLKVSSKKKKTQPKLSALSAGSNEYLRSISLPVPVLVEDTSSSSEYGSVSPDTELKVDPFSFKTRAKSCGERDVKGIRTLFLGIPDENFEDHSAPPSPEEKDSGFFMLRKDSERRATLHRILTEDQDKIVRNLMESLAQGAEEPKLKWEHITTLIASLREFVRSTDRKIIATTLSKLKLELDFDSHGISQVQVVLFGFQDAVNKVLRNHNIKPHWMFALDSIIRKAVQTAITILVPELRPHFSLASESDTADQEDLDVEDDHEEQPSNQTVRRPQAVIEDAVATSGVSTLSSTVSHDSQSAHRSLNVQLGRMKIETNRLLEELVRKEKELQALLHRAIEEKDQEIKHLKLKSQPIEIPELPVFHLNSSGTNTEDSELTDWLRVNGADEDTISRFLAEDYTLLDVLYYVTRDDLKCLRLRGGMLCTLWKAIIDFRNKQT
Experimental: as §1

WNK2 = WNK2 (Homo sapiens (Human), UniProt Q9Y3S1)
Experimental: as §1

| Structure (SMILES) | remaining binding at 1 µM [1] [%] | remaining binding at 1 µM (TNIK) [%] | remaining binding at 1 µM (KIT(D816H)) [%] | remaining binding at 1 µM (DMPK) [%] | remaining binding at 1 µM (DCAMKL3) [%] | remaining binding at 1 µM [2] [%] | remaining binding at 1 µM (RET (V804M)) [%] | remaining binding at 1 µM (PIK3CA(E545K)) [%] | remaining binding at 1 µM (TNK1) [%] | remaining binding at 1 µM (ICK) [%] | remaining binding at 1 µM (PFTK1) [%] | remaining binding at 1 µM (MELK) [%] | remaining binding at 1 µM (ACVR2B) [%] | remaining binding at 1 µM (ULK3) [%] | remaining binding at 1 µM (CSNK1A1) [%] | remaining binding at 1 µM (ASK2) [%] | remaining binding at 1 µM (CSNK1D) [%] | remaining binding at 1 µM (GRK1) [%] | remaining binding at 1 µM (PAK6) [%] | remaining binding at 1 µM (MLCK) [%] | further results |
| --- | --- | --- | --- | --- | --- | --- | --- | --- | --- | --- | --- | --- | --- | --- | --- | --- | --- | --- | --- | --- | --- |
| CCN1CCN(Cc2cc(NC(=O)c3ccc(C)c(-c4ccc5nc(NC(=O)C6CC6)cn5n4)c3)cc(C(F)(F)F)c2)CC1 [Compound I-2, 3-(2-(cyclopropanecarboxamido)imidazo[1,2-b]pyridazin-6-yl)-N-(3-((4-ethylpiperazin-1-yl)methyl)-5-(trifluoromethyl)phenyl)-4-methylbenzamide] | 0 | 16 | 38 | 87 | 91 | 100 | 0.05 | 99 | 63 | 50 | 0.35 | 95 | 96 | 97 | 73 | 99 | 100 | 91 | 95 | 93 | remaining binding at 1 µM (EPHA3): 41%; remaining binding at 1 µM (IKK-beta): 50%; remaining binding at 1 µM (TIE2): 0.1%; remaining binding at 1 µM (MAST1): 94%; remaining binding at 1 µM (EGFR(G719C)): 53%; remaining binding at 1 µM (MKK7): 84%; remaining binding at 1 µM (DYRK2): 95%; remaining binding at 1 µM [3]: 93%; remaining binding at 1 µM (ERK3): 89%; remaining binding at 1 µM (LCK): 0%; remaining binding at 1 µM (ULK2): 100%; remaining binding at 1 µM (KIT(L576P)): 0%; remaining binding at 1 µM (TAOK1): 3.9%; remaining binding at 1 µM (ITK): 1.4%; remaining binding at 1 µM (PFTAIRE2): 0.9%; remaining binding at 1 µM (YANK1): 93%; remaining binding at 1 µM (ASK1): 97%; remaining binding at 1 µM (WNK2): 72% |
| CCN1CCN(Cc2cc(NC(=O)c3ccc(C)c(-c4ccc5nc(NC(=O)C6CC6)cn5c4)c3)cc(C(F)(F)F)c2)CC1 [Compound I-6, 3-(2-(cyclopropanecarboxamido)imidazo[1,2-a]pyridin-6-yl)-N-(3-((4-ethylpiperazin-1-yl)methyl)-5-(trifluoromethyl)phenyl)-4-methylbenzamide] | 0.1 | 14 | 29 | 100 | 96 | 72 | 0 | 93 | 31 | 68 | 2.4 | 100 | 100 | 100 | 100 | 64 | 100 | 93 | 97 | 85 | remaining binding at 1 µM (EPHA3): 34%; remaining binding at 1 µM (IKK-beta): 80%; remaining binding at 1 µM (TIE2): 0.25%; remaining binding at 1 µM (MAST1): 95%; remaining binding at 1 µM (EGFR(G719C)): 46%; remaining binding at 1 µM (MKK7): 100%; remaining binding at 1 µM (DYRK2): 92%; remaining binding at 1 µM [3]: 87%; remaining binding at 1 µM (ERK3): 100%; remaining binding at 1 µM (LCK): 0.1%; remaining binding at 1 µM (ULK2): 100%; remaining binding at 1 µM (KIT(L576P)): 1.8%; remaining binding at 1 µM (TAOK1): 4.5%; remaining binding at 1 µM (ITK): 5.8%; remaining binding at 1 µM (PFTAIRE2): 3.6%; remaining binding at 1 µM (YANK1): 93%; remaining binding at 1 µM (ASK1): 100%; remaining binding at 1 µM (WNK2): 57% |
